Legend:
Assay type in all cases: physicochemical
[1] = Stability of the compounds stored solely (crystal, without solvent) at 40° C., content by HPLC; details: crystal (no solvent), hard glass container
Experimental: (§1) The above-described compounds 1 and 2 were dissolved in the medium chain fatty acid triglyceride (MCT)^31 at the amount shown in the table 1 below respectively. Each of the solutions was placed in a container made of hard glass and stored at 40° C. The time-course of the content of the compound 1 and 2 in the solutions were determined by HPLC method. The medium chain fatty acid triglyceride used herein was a mixture of caprylic acid triglyceride and capric acid triglyceride (85:15). At the same time, each of the compounds 1 and 2 was placed solely (without being dissolved in the solvent) in the container as above and stored at 40° C. to provide control study.
(1) Under the absence of the solvent, the content of the compound was determined as follows (HPLC method).
The stored compounds 1 and 2, and standard compounds 1 and 2 were weighed precisely around 0.025 g each, and exactly 5 ml aliquots of an internal standard solution were added to the respective weighed compounds. Then the test and standard preparations were obtained by adding acetonitrile (liquid chromatograph grade) to give the precise total amount of 10 ml each. Each 10 μl of the test and standard preparations was loaded on liquid chromatograph and determined the content of the compound by internal standard method with one point calibration curve.
[formula] Ws: The amount of the compound in the standard preparation (mg) WT: The amount of the compound 1 or 2 in the test preparation QS: Peak area ratio of the compound in the standard preparation to the internal standard. QT: Peak area ratio of the compound in the test preparation to the internal standard. Measurement Conditions Detector: Ultraviolet absorption spectrophotometer (wavelength: 294 nm) Column: A stainless tube having about 5 mm of internal diameter and about 25 cm of length, packed with 5 μm octadecylsilyl silica gel for liquid chromatograph Column temperature: Stable at around 35° C. Mobile phase: Mixed solution of acetonitrile (liquid chromatograph grade)/aqueous sodium acetate (0.01 mol/l)/glacial acetic acid (800:200:1) (2) Under the presence of the solvent, the content of the compound was determined as follows (HPLC method).

[2] = Stability of the compounds dissolved in medium chain fatty acid triglyceride (MCT) stored at 40° C., content by HPLC; details: for stability on admixing with the glyceride (conclusion from Table 1): MCT versus crystal; for content of the compound stored at 40° C., 14 days / content of the compound stored at 40° C., initial: in MCT (compound 1: 0.36 mg/g; compound 2: 0.12 mg/g)
Experimental: as §1
(§2) Based on the value expressed in the table 1, an amount of the solution corresponding to 36 μg of the compound 1 or 2 was weighted precisely. Precisely 1.0 ml of an internal standard solution was added, and then ethyl acetate (liquid chromatograph grade) was added to give the total amount of 10 ml each. Each 0.1 ml of the solution was vacuum concentrated to dryness to give the test preparation.
(§3) Each 18 mg of the respective standard compounds was weighted precisely and admixed with ethyl acetate (liquid chromatograph grade) to give the total amount of exactly 50 ml each. One (1.0) ml of the solution and 10.0 ml of the internal standard solution were measured precisely and admixed with ethyl acetate (liquid chromatograph grade) to give the total amount of 100 ml each. Each 0.1 ml of the solution was vacuum concentrated to dryness to give the standard preparation.
(§4) To the test and standard preparations, 0.1 ml of fluorescent labeling reagent and 0.85 ml of fluorescent labeling catalyst were added respectively, and the mixture was stirred and reacted at room temperature more than 30 minutes. 0.05 ml aliquots of acetonitrile (liquid chromatograph grade) containing 2% acetic acid were added to the reaction mixtures respectively, stirred and then stand for more than 30 minutes to provide test and standard solutions.
(§5) Each 10 μl of the test and standard solutions was loaded on liquid chromatograph and determined the content of the respective compounds by internal standard method with one point calibration curve.
(§6) [formula] WS: The amount of the compound in the standard preparation (mg) QS: Peak area ratio of the compound in the standard preparation to the internal standard QT: Peak area ratio of the compound in the test preparation to the internal standard. Measurement Condition Detector: fluorescent spectrometer (excitation wavelength 259 nm, fluorescent wavelength 394 nm) Column: A stainless tube having about 5 mm of internal diameter and about 25 cm of length, packed with 5 μm octadecylsilyl silica gel for liquid chromatograph Column temperature: Stable at around 35° C. Mobile phase: Mixed solution of acetonitrile (liquid chromatograph grade)/methanol (liquid chromatograph grade)/aqueous ammonium acetate (0.05 mol/l) (4:11:5) The results are shown in Table 1 below.

[3] = Stability of compound 1 stored at 40° C. for 4 weeks in various solvents and containers, content by HPLC
Experimental: as §2, §3, §4, §5, §6
Each of the solutions was placed in a container made of low-density polyethylene (LDPE), hard glass or stainless steel and stored at 40° C. The content of the compound 1 in the solutions after four weeks were determined by HPLC method according to the above described (2) of Example 1 except for using composition shown in table 2 below.

[4] = Stability of compound 1 stored at 40° C. for 4 weeks in various ratio of MCT to Mineral oil, content by HPLC
Experimental: as §2, §3, §4, §5, §6
Each of the solutions was placed in a container made of LDPE and stored at 40° C. The content of the compound in the solutions after four weeks were determined by HPLC method according to the above described (2) of Example 1 except for using composition shown in table 3 below.

CC[C@H](C)CC(F)(F)[C@@]1(O)CC[C@H]2[C@@H](CC(=O)[C@@H]2CCCCCCC(=O)O)O1 [compound 2, 7-[(1R,6R,7R)-3-[(3S)-1,1-difluoro-3-methylpentyl]-3-hydroxy-2-oxabicyclo[4.3.0]nonane-8-one-7-yl]heptanoic acid]
content of the compound stored at 40° C., 6 days ([1]; 6 days): 84.5% | content of the compound stored at 40° C., 14 days [1]: 75.0% | content of the compound stored at 40° C., 28 days [1]: 53.4% | content of the compound stored at 40° C., initial [1]: 100% | stability on admixing with the glyceride (conclusion from Table 1) [2]: significantly improved | content of the compound stored at 40° C., 14 days ([2]; hard glass): 99.6% | content of the compound stored at 40° C., initial ([2]; hard glass): 100% | content of the compound stored at 40° C., 28 days ([2]; in MCT (compound 2: 0.12 mg/g), hard glass, 28 days): 98.9% | content of the compound stored at 40° C., 191 days ([2]; in MCT (compound 2: 0.12 mg/g), hard glass, 191 days): 99.6%

CCCCC(F)(F)[C@@]1(O)CC[C@H]2[C@@H](CC(=O)[C@@H]2CCCCCCC(=O)O)O1 [compound 1, 7-[(1R,3R,6R,7R)-3-(1,1-difluoropentyl)-3-hydroxy-2-oxabicyclo[4.3.0]nonane-8-one-7-yl]heptanoic acid]
% to the initial 4 weeks after ([3]; 10 μg/mL, MCT, LDPE container): 100.8% | % to the initial 4 weeks after ([3]; 10 μg/mL, Saline, Hard glass container): 18.0% | % to the initial 4 weeks after ([3]; 20 μg/mL, Caster oil, LDPE container): 102.9% | % to the initial 4 weeks after ([3]; 20 μg/mL, Corn oil, LDPE container): 99.6% | % to the initial 4 weeks after ([3]; 20 μg/mL, Diluted water, Hard glass container): 39.6% | % to the initial 4 weeks after ([3]; 20 μg/mL, MCT, Hard glass container): 99.5% | % to the initial 4 weeks after ([3]; 20 μg/mL, MCT, Stainless steel container): 99.5% | % to the initial 4 weeks after ([3]; 20 μg/mL, Olive oil, LDPE container): 99.0% | % to the initial 4 weeks after ([3]; 20 μg/mL, Sesame oil, LDPE container): 100.1% | stability on admixing with the glyceride (conclusion from Table 2) ([3]; glycerides versus water or saline): significantly improved | % to the initial 4 weeks after ([4]; 0.5 μg/mL, MCT/MO (V/V) 1/99, LDPE): 91.0% | % to the initial 4 weeks after ([4]; 0.5 μg/mL, MCT/MO (V/V) 2/98, LDPE): 96.6% | % to the initial 4 weeks after ([4]; 0.5 μg/mL, MCT/MO (V/V) 5/95, LDPE): 98.1% | % to the initial 4 weeks after ([4]; 0.5 μg/mL, MCT/MO (V/V) 10/90, LDPE): 99.0% | % to the initial 4 weeks after ([4]; 0.7 μg/mL, MCT/MO (V/V) 0/100, LDPE): 88.3% | % to the initial 4 weeks after ([4]; 10 μg/mL, MCT/MO (V/V) 50/50, LDPE): 101.9% | stability on admixing with the mixture of glyceride and other oil solvent (conclusion from Table 3) ([4]; MCT/Mineral oil mixtures): significantly improved | content of the compound stored at 40° C., 7 days ([1]; 7 days): 97.2% | content of the compound stored at 40° C., 14 days [1]: 94.1% | content of the compound stored at 40° C., 28 days [1]: 87.4% | content of the compound stored at 40° C., initial [1]: 100% | stability on admixing with the glyceride (conclusion from Table 1) [2]: significantly improved | content of the compound stored at 40° C., 38 days ([2]; in MCT (compound 1: 0.36 mg/g), hard glass, 38 days): 102.1% | content of the compound stored at 40° C., 90 days ([2]; in MCT (compound 1: 0.36 mg/g), hard glass, 90 days): 100.9% | content of the compound stored at 40° C., 14 days ([2]; hard glass): 101.4% | content of the compound stored at 40° C., initial ([2]; hard glass): 100%

Source: patent US8088934B2, “Composition and method for stabilizing the same” (SUCAMPO AG, priority 1999, dated 2012)
